The values below come from US12115232B2, “Preparation for magnetic resonance diagnostics for oncological diseases, comprising deuterated 3-O-methylglucose, and diagnostic method using said preparation” (SOLVEX LIMITED LIABILITY COMPANY, priority 2017, dated 2024).

The test system of one assay is tumor. The assay can be described thus: Preliminary 2H MRI tumor visualization experiments with glucose derivatives. Format: in vivo. From the text: The authors of this invention have studied various derivatives of glucose as a potential diagnostic agent. It was discovered that not all glucose derivatives can be used for the diagnostics of oncological diseases through ^2H MRI or ^2H NMR.

In another assay the test system is breast carcinoma 4T1. The protocol:
In the examples below, the MRI scanner Bruker BioSpec BC70/30 USR with the constant field of 7.05 T, equipped with a surface transmitting-and-receiving coil with a diameter of 3 cm and a scan depth of ca. 1 cm was used.
To register deuterium image the FLASH (Fast low angle shot) pulse sequence was used.
For experiments with the broadband excitation the following settings were used: the excitation frequency was determined by ^2H NMR spectrum and was sfo1≈46.1745 MHz, a rectangular excitation pulse with a width of 1300 Hz and a power of 36 dB, the flip angle FA=30°, the repetition time TR=11.8 MS, echo time TE=4.4 msec, a scan area of 10 cm×10 cm, scan matrix, 50×50, slice thickness 3 cm, bandwidth of 12500 Hz, total scan time 10 minutes (1030 averages).
In this example, experiments were conducted on mice Balb/c inoculated with breast carcinoma 4T1 (injection of 5×10^5 cells/60 μl under the left front paw for 10 days before experiment) and in healthy Balb/c mice.
A solution of 20-72 mg of 3-O-CD3-glucose was administered to an animal weighing 20 g was injected intraperitoneally, intravenously or via gavage (intraperitoneal: 0.5 ml of a saline solution; intravenous: 0.2 ml of water; oral: 0.25 ml of a saline solution). After injection, the animal was kept in a separate cage with free access to food and water within specified time. For imaging the animal was immobilized with isoflurane. The surface transmitting-and-receiving coil was fixed on the body of the mouse from the dorsal side in the thoracic region.

Molecules are shown by their SMILES.

Turning to `OCC1OC(O)C(O)C(O)C1O` (stereo not drawn) [6,6-D2-glucose], in the assay with tumor, the “tumor visualization by 2H MRI” value is “not possible to accurately visualize the tumor”.

For the molecule `[2H]C([2H])([2H])O[C@H]1[C@H](O)[C@@H](CO)OC(O)[C@@H]1O` (stereo partly drawn) [3-O-CD3-glucose], the “accumulation in tumor by 2H MRI after intravenous injection” value in the assay with breast carcinoma 4T1 (20 mg intravenous, 50 minutes, mouse no. 3 (FIG. 9)) is “accumulation of 3-O-CD3-glucose in the tumor”. The “location of agent by 2H MRI after oral administration, late” value with breast carcinoma 4T1 (70 mg oral, 100 min (text: 115 min), mouse no. 4 (FIG. 10)) is “accumulated in tumors”. In addition, the “accumulation in tumor visualized by 2H MRI” value in the assay with breast carcinoma 4T1 (72 mg intraperitoneal, 20-320 min after administration, mouse no. 2 (FIGS. 5-8)) is given as “accumulated in the tumor in sufficient concentration to be visualized”. Moreover, the “2H MRI signal in control mouse without tumors” value in the assay on breast carcinoma 4T1 (72 mg intraperitoneal, 40 minutes after administration, mouse no. 1) is recorded as “missing an area with a strong signal of deuterium”. Also, in the assay with breast carcinoma 4T1 (mouse, FIGS. 5-9), the “valid range of the diagnostic agent doses” value is listed as 1-3.5 g per 1 kg of animal weight.
